Test results: PMC10504495 (iScience, 2023)

What was measured:
lysine lactylation = settings: cells, 24 h treatment; cited from earlier work
Source text: Chemical affinity-based probes are powerful tools that convert weak protein-ligand interactions into robust covalent chemical linkages, thus enabling the capture of transient interactions. […] We tried to use this la ...

HDAC3 = target: T1, HDAC3 (Homo sapiens, UniProt O15379); test: fluorogenic probe delactylation assay; format: biochemical; settings: 10 μM probe
T1 construct: purchased Abcam ab42631
T1 sequence (O15379 whole entry): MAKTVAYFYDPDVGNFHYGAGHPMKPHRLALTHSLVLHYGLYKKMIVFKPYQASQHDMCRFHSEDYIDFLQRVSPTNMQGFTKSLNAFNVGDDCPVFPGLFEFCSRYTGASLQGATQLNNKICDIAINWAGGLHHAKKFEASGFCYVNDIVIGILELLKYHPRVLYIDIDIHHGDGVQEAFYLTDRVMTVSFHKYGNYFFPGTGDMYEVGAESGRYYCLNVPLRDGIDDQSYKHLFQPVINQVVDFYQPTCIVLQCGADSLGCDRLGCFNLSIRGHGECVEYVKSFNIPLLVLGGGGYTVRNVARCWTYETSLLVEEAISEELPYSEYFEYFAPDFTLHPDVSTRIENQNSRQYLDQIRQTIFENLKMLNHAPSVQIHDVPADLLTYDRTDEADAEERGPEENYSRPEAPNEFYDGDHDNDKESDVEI
T1 sequence (Q9Y618 395-489 partner limits assumed): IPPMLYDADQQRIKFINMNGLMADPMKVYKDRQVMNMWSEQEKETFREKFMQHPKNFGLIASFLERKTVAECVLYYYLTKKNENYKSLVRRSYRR
Experimental: (§1) To determine the absorption spectra, 10 μM p-H4K16laNBD was incubated with or without 0.2 μM SIRT3 and 100 μM NAD^+ for 2 h in 20 mM HEPES buffer (pH = 8.0). For the fluorescence assay, the fluorescence was detected using an excitation wavelength of 480 nm, and the emitted fluorescence signal was measured over the range of 520–740 nm using a microplate reader (Molecular Devices SpectraMax ID5 Microplate Reader).
(§2) For the HPLC analysis, we incubated 10 μM p-H4K16laNBD with 0.2 μM SIRT3 and 100 μM NAD^+ in 20 mM HEPES buffer (pH = 8.0) for 2 h. We also performed time-dependent fluorescence measurements by incubating 10 μM p-H4K16laNBD with 0.2 μM SIRT3 and 100 μM NAD^+ or 0.1 μM HDAC3 in 20 mM HEPES buffer (pH = 8.0) for different time intervals. The fluorescence was measured using an excitation wavelength of 480 nm, and the emitted fluorescence signal at 550 nm was measured using a microplate reader (Molecular Devices SpectraMax ID5 Microplate Reader).
(§3) To determine the fluorescence change after incubating p-H4K16laNBD with various enzymes (HDAC3, SIRT1-3, SIRT5-7), we incubated 10 μM p-H4K16laNBD with 0.2 μM SIRT1-7 (except SIRT4) in 20 mM HEPES buffer (pH = 8.0) containing 100 μM NAD^+ for 2 h. For positive control, we used 0.1 μM HDAC3. The fluorescence was measured using an excitation wavelength of 480 nm, and the emitted fluorescence signal at 550 nm was measured using a microplate reader (Molecular Devices SpectraMax ID5 Microplate Reader).

SIRT3 [1] = target: T2, SIRT3 (Homo sapiens, UniProt Q9NTG7); test: fluorogenic probe delactylation assay; format: biochemical
T2 construct: SIRT3 (118–399 aa); 6xHis with TEV site (pET-N-6xHis-TEV vector) (N, cleaved yes); made in house; host or cells: E. coli BL21-CodonPlus (DE3)-RIL
T2 sequence (Q9NTG7 118-399): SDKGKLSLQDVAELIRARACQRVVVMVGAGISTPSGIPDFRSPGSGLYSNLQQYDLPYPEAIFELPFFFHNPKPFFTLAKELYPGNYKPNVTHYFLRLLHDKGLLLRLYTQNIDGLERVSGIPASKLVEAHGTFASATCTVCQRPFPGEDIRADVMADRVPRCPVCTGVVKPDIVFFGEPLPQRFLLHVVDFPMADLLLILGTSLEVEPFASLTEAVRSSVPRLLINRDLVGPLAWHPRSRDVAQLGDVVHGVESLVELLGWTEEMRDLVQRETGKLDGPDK
Experimental: as §1, §2, §3

SIRT1 [2] = target: T3, SIRT1 (Homo sapiens, UniProt Q96EB6); test: fluorogenic probe delactylation assay; format: biochemical; settings: 10 μM probe, 100 μM NAD+, HEPES pH 8.0, 37°C, 2 h
T3 construct: the human SIRT1 core region (234–505 aa); SUMO (pET-28a-sumo vector) (cleaved yes); made in house; host or cells: E. coli BL21-CodonPlus (DE3)-RIL
T3 sequence (Q96EB6 234-505): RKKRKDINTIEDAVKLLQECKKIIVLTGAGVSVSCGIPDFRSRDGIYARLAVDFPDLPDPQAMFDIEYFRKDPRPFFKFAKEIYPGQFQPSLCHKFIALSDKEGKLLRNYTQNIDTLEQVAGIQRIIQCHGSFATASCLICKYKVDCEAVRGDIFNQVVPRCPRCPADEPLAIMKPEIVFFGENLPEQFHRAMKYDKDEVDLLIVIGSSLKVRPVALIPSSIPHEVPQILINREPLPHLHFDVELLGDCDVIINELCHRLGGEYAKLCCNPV
Experimental: as §3

SIRT2 [3] = target: T4, SIRT2 (Homo sapiens, UniProt Q8IXJ6); test: fluorogenic probe delactylation assay; format: biochemical; settings: 10 μM probe, 100 μM NAD+, HEPES pH 8.0, 37°C, 2 h
T4 construct: SIRT2 (50–356 aa); SUMO (pET-28a-sumo vector) (cleaved yes); made in house; host or cells: E. coli BL21-CodonPlus (DE3)-RIL
T4 sequence (Q8IXJ6 50-356): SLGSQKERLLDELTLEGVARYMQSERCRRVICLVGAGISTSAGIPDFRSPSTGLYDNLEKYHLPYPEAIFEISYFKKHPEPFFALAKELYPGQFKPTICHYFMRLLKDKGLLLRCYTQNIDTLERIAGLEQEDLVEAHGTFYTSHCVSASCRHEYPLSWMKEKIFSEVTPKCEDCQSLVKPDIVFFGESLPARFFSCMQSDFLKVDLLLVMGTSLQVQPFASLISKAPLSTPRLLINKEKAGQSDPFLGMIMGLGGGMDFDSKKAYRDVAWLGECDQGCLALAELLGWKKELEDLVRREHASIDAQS
Experimental: as §3

SIRT5 = test: fluorogenic probe delactylation assay; format: biochemical, human; settings: 10 μM probe, 100 μM NAD+, HEPES pH 8.0, 37°C, 2 h
Experimental: as §3

SIRT6 = test: fluorogenic probe delactylation assay; format: biochemical, human; settings: 10 μM probe, 100 μM NAD+, HEPES pH 8.0, 37°C, 2 h
Experimental: as §3

SIRT7 = test: fluorogenic probe delactylation assay; format: biochemical, human; settings: 10 μM probe, 100 μM NAD+, HEPES pH 8.0, 37°C, 2 h
Experimental: as §3

[4] = absorption/fluorescence spectra of the probe; format: physicochemical; settings: 10 μM probe
Experimental: as §1

[5] = target: human SIRT1 core region (234-505 aa) (human) (UniProt Q96EB6); test: ITC; 40 uL of 2 mM peptide in 20 injections titrated into 200 uL of 30 uM Sirtuin in the cell; 25 C; Tris pH 7.5, 150 mM NaCl; MicroCal PEAQ-ITC analysis software
[6] = target: human SIRT2 (50-356 aa) (human) (UniProt Q8IXJ6); test: as above
SIRT3 [7] = target: T2, SIRT3; test: NAD+ consumption/cycling assay; format: biochemical; settings: for delactylation activity in words: NAD+ consumption/cycling, 3 h, Figures 1A, S2
Experimental: To screen the delactylation activity of Sirtuins, we employed a modified[35] NAD^+ cycling assay to measure the amount of unused NAD^+ levels after Sirtuins’ consumption reactions. This assay involves the conversion of NAD^+ to NADH by alcohol dehydrogenase, followed by the conversion of NADH to NAD^+ by NADH oxidoreductase, diaphorase with resazurin as an electron acceptor. The reduced resazurin is then measured as resorufin, which has a high fluorescence characteristic.[36]
To perform the NAD^+ consumption assay, 50 μM recombinant Sirtuins were co-incubated with 500 μM Kla peptides and 100 μM NAD^+ in 150 NaCl, 20 mM Tris (pH = 7.5) buffer for 3 h or overnight at 37°C. Then, hydrochloric acid, final concentration at 150 mM, was added to terminate the reaction. As for the cycling assay, 200 μL reaction buffer containing 100 mM Na2HPO4 (pH = 8.0), 10 μM resazurin, 10 μM flavin mononucleotide (FMN), 1% absolute ethanol, 66.5 μg/mL alcohol dehydrogenase and 5 μg/mL diaphorase was simultaneously mixed with 10 μL of NAD^+ consumption mixtures in 96-well white plate. Then, the plate was immediately measured by fluorescence spectrophotometer under excitation 549 nm, emission 576 nm condition.

SIRT1 [8] = target: T3, SIRT1; test: HPLC/LC-MS delactylation (erased ratio); format: biochemical; settings: 100 μM peptide, 200 nM SIRT1, 37°C, 3 h
Source text: (§4) To prepare for the enzymatic assays and crystallization, the human SIRT1 core region (234–505 aa), SIRT2 (50–356 aa), SIRT5 (32–302), and full-length SIRT7 were cloned into a pET-28a-sumo vector, while SIRT3 (118–399 aa) and full-length SIRT6 were cloned into a pET-N-6xHis-TEV (Tobacco etch virus) vector. These vectors were then transformed and expressed in BL21-CodonPlus (DE3)-RIL competent cells. The recombinant proteins were purified via affinity and ion exchange purification, followed by gel filtration. To remove tags during purification, TEV, and sumo protease were utilized. The purified recombinant human Sirtuins were then concentrated to a final concentration of 10 mg/mL and stored at −80°C freezer for use in the following experiments.
(§5) LC-MS analysis was performed to test and verify the delactylation activity of Sirtuins. The lactyl peptides used in LC-MS assay was added 2 additional tryptophan residues at the N- and C- terminus to enhance the HPLC absorption sensitiveness. After incubating the peptides with Sirtuins/HDAC3 at 37°C for 3 h. The reaction was halted by methanol, and LC-MS was used to analyze the erased ratio of different peptides.

HDAC3/NCOR2 = test: HPLC/LC-MS delactylation (erased ratio); format: biochemical; settings: 100 μM peptide, 200 nM HDAC3/NCOR2, 37°C, 3 h; in comparison with Sirtuins
Experimental: as §5

SIRT3 [9] = target: T2, SIRT3; test: Kinetic study by HPLC, Lineweaver-Burk; format: biochemical; settings: 10-200 μM peptide, 200 nM SIRT3, Tris pH 7.4, 37°C, 40 min, HPLC 280 nm, 3 replicates
Source text: as §4
To perform the kinetic study, the erasing rate was determined using the HPLC method. The KM and kcat values were then computed using the Lineweaver-Burk method.[37] […] The erased rate was evaluated by HPLC, and integrations at 280 nm were recorded to give the erased ratio. The kinetic parameters were then obtained using the formula: 1/v=(KM/Vmax)(1/[S])+1/Vmax .

SIRT1 [10] = target: T3, SIRT1; test: NAD+ consumption/cycling assay; format: biochemical; settings: overnight (≥12 h)
Source text: as §4
To screen the delactylation activity of Sirtuins, we employed a modified[35] NAD^+ cycling assay to measure the amount of unused NAD^+ levels after Sirtuins’ consumption reactions. […] The reduced resazurin is then measured as resorufin, which has a high fluorescence characteristic.[36]
To perform the NAD^+ consumption assay, 50 μM recombinant Sirtuins were co-incubated with 500 μM Kla peptides and 100 μM NAD^+ in […], 20 mM Tris (pH = 7.5) buffer for 3 h or overnight at 37°C. […] Then, the plate was immediately measured by fluorescence spectrophotometer under excitation 549 nm, emission 576 nm condition.

SIRT2 [11] = target: T4, SIRT2; test: HPLC/LC-MS delactylation (erased ratio); format: biochemical; settings: 100 μM peptide, 200 nM SIRT2, 37°C, 3 h
Source text: as §4, §5

SIRT3 [12] = target: T2, SIRT3; test: HPLC/LC-MS delactylation (erased ratio); format: biochemical; settings: 100 μM peptide, 200 nM SIRT3, 37°C, 3 h; compared with other Sirtuins
Source text: as §4, §5

In the case of CC(O)C(=O)[O-].[Na+] (stereo not shown) [sodium lactate], the “induction of lysine lactylation” value (lysine lactylation) is listed as “will induce detectable levels of lysine lactylation”.

For “GGAK(lac)RHRPra-NH2 [p-H4K16laNBD, H4K16la based fluorogenic probe with O-NBD (nitrobenzofurazan) group conjugated to the C-terminus]”, the “first-order rate constant k, HDAC3” value (HDAC3; 0.1 μM HDAC3, 20 mM HEPES pH 8.0, λex 480, λem 550 nm) was 0.0102 min⁻¹, the “fluorescence response, HDAC3” value (HDAC3; 0.1 μM HDAC3, HEPES pH 8.0, 37°C, 2 h) was “fluoresced at 550 nm” and the “first-order rate constant k, SIRT3” value (SIRT3 [1]; 10 μM probe, 0.2 μM SIRT3, 100 μM NAD+, 20 mM HEPES pH 8.0, λex 480, λem 550 nm) was 0.0059 min⁻¹. The “fluorescence response, SIRT3” value (SIRT3 [1]; 10 μM probe, SIRT3, 100 μM NAD+, HEPES pH 8.0, 37°C, 2 h) was “fluoresced at 550 nm”, the “fluorescence with sole NAD+ or denatured SIRT3” value (SIRT3 [1]; control groups) was “will not affect the fluorescence generating” and the “fluorescence response, SIRT1” value (SIRT1 [2]) was “minimal changes in fluorescence”. The “fluorescence response, SIRT2” value (SIRT2 [3]) was “minimal changes in fluorescence”, the “fluorescence response, SIRT5” value (SIRT5) was “minimal changes in fluorescence” and the “fluorescence response, SIRT6” value (SIRT6) was “minimal changes in fluorescence”. The “fluorescence response, SIRT7” value (SIRT7) was “minimal changes in fluorescence”, the “new absorption peak after enzymatic reaction” value ([4]; 0.2 μM SIRT3, 100 μM NAD+, 2 h, HEPES pH 8.0) was 482 nm and the absorption peak ([4]; 20 mM HEPES pH 8.0, without enzyme) was “around 370 nm”. The “fluorescence emission peak after incubation with SIRT3 and NAD+” value ([4]; λex 480 nm, 0.2 μM SIRT3, 100 μM NAD+) was 550 nm.

With H3K9ac peptide the Kd [5] was 92.3 µM and the Kd [6] was 42.2 µM.

In the case of “KGGAK (L/D lactic acid) RHRK [H4K16la, lactyl-lysine H4K16 peptide; NAD+ assay and ITC]”, the “delactylation activity in words” value (SIRT3 [7]) is reported as “higher delactylation activity”, the “NAD+ consumption overnight in words” value (SIRT3 [7]; overnight (≥12 h)) is reported as “consumed much higher level of NAD^+” and the “hydrolytic activity, HPLC” value (SIRT1 [8]) is reported as “slight hydrolytic activity”. The “in vitro delactylation activity, HPLC” value (HDAC3/NCOR2) was “highest in vitro delactylation activity”, the kcat (SIRT3 [9]) was 0.08 ± 0.008 s⁻¹ and the Vmax (SIRT3 [9]; Lineweaver-Burk) was 0.925 ± 0.101 µmol/L/min.

With “QTARK (L/D lactic acid) STGG [H3K9la, lactyl-lysine H3K9 peptide; Trp-flanked version used in HPLC-MS]” the “NAD+ consumption overnight in words” value (SIRT1 [10]) was “consumed much higher level of NAD^+” and the “hydrolytic activity, HPLC” value (SIRT1 [8]) was “slight hydrolytic activity”.

In the case of “WKGLGK (L/D-lactic acid) GGAKW [H4K12la, lactyl-lysine H4K12 peptide]”, the “hydrolytic activity, HPLC” value (SIRT1 [8]) is reported as “didn’t show any hydrolytic activity”, the “hydrolytic activity, HPLC” value (SIRT2 [11]) is reported as “didn’t show any hydrolytic activity” and the “erased ratio / hydrolytic activity, HPLC” value (SIRT3 [12]) is reported as “didn’t show any hydrolytic activity”.

In the case of “WKQLATK (L/D-lactic acid) AARKW [H3K23la, lactyl-lysine H3K23 peptide]”, the “delactylation activity in words” value (SIRT3 [7]) is reported as “higher delactylation activity”.
